Measurements from PubChem BioAssay AID1194 (EPA DSSTox, 2008).
Calls of active or inactive are those of the source.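 How the source made its calls: active means chemicals rated mutagenic or weakly mutagenic in the Salmonella bacterial test by one literature review, or positive overall by another; inconclusive means no clear call, values can overlap the other calls; inactive means the rest.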

Test system: Salmonella typhimurium Ames mutagenicity, literature compiled
Assay: DSSTox (CPDBAS) Carcinogenic Potency Database Salmonella Mutagenicity
Description: The Carcinogenic Potency Database (CPDB) is a unique and widely used international resource of the results of over 6500 chronic, long-term animal cancer tests on over 1500 chemical substances. The CPDB provides easy access to the bioassay literature, with qualitative and quantitative analyses of both positive and negative experiments that have been published over the past 50 years in the general literature and by the National Cancer Institute/National Toxicology Program. The CPDB standardizes the diverse literature of cancer bioassays that vary widely in protocol, histopathological examination and nomenclature, and in the published author's choices of what information to provide in their papers. Results are reported in the CPDB for tests in rats, mice, hamsters, dogs, and nonhuman primates, and are based on the most positive result among all experiments for each sex-species. The DSSTox CPDBAS (all species) file incorporates data from the CPDB Summary Tables for the full list of over 1500 chemical substances tested in at least one species.
A chemical is classified within the CPDB as mutagenic, i.e. "active", in the Salmonella assay if it was evaluated overall as either "mutagenic" or "weakly mutagenic" by Zeiger [Zeiger, E. (1997) Genotoxicity Database. In: Gold and Zeiger, Eds. Handbook of Carcinogenic Potency and Genotoxicity Databases. Boca Raton, FL: CRC Press, pp. 687-729. http://potency.berkeley.edu/CRCbook.html] or as overall "positive" by the EPA Gene-Tox Program [Kier et al. (1986) Mutat. Res. 168: 69-240].

| SMILES | outcome |
| --- | --- |
| O=C1NC(=O)C(c2ccccc2)(c2ccccc2)N1 | inactive |
| O=NN1CCCCCCC1 | active; inactive |
| Nc1nc(N)nc(-c2ccc([N+](=O)[O-])o2)n1 | active |
| CN(C)c1ccc(C(=C2C=CC(=[N+](C)C)C=C2)c2ccc(N(C)C)cc2)cc1 | inactive; active |
| S=c1nc[nH]c2nc[nH]c12 | active |
| O=CNc1nc(-c2ccc([N+](=O)[O-])o2)cs1 | active; inactive |
| CCCc1cc(=O)[nH]c(=S)[nH]1 | inactive; active |
| CCCN(CCC)S(=O)(=O)c1ccc(C(=O)O)cc1 | inactive; active |
| ClC1C(Cl)C(Cl)C(Cl)C(Cl)C1Cl (configuration not stated) | inactive; active |
| O=NN1CCOCC1 | active |
| [N-]=[N+]=[N-] | active; inactive |
| O=S(=O)(c1ccc(Cl)cc1)c1ccc(Cl)cc1 | inactive |
| Oc1c(Cl)cc(Cl)c(Cl)c1Cc1c(O)c(Cl)cc(Cl)c1Cl | inactive; active |
| CCCCOC(=O)COc1ccc(Cl)cc1Cl | inactive; active |
| O=c1oc2c(O)c(O)cc3c(=O)oc4c(O)c(O)cc1c4c23 | inactive |
| CCNc1nc(Cl)nc(NCC)n1 | inactive |
| O=[N+]([O-])c1cccc2ccccc12 | active |
| COc1c(Cl)c(Cl)c(Cl)c(Cl)c1Cl | active; inactive |
| CC1CCC(C(C)C)C(O)C1 (configuration not stated) | inactive; active |
| O=C(CCl)c1ccccc1 | inactive |
| O=S(=O)(O)c1ccc(N=Nc2cc(S(=O)(=O)O)c3ccccc3c2O)c2ccccc12 | active; inactive |
| [Cd+2].[Cl-].[Cl-] | inactive; active |
| CC(O)CO (configuration not stated) | inactive |
| [O]=[Cr](=[O])([OH])[O][Cr](=[O])(=[O])[OH] | active |
| [O-]/[N+](=N\O)c1ccccc1 | active; inactive |

| SMILES | outcome |
| --- | --- |
| C=Cc1cccc(C)c1 | inactive; active |
| Cc1cnc2ccc3c(nc(N)n3C)c2n1 | active |
| CCc1cc(C(N)=S)ccn1 | inactive; active |
| CC1CN(N=O)CC(C)O1 (configuration not stated) | active |
| CC(C)=CCC/C(C)=C/C=O | inactive; active |
| CC(I)C1OCC(CO)O1 (configuration not stated) | active |
| C[C@](N)(Cc1ccc(O)c(O)c1)C(=O)O | inactive |
| C=C(Cl)CSC(=S)N(CC)CC | active; inactive |
| C=CC(=O)OCC | inactive |
| C1N2CN3CN1CN(C2)C3 | active |
| C#C[C@]1(O)CC[C@H]2[C@@H]3CCC4=C(CCC(=O)C4)[C@H]3CC[C@@]21C | inactive; active |
| Cc1ccc2c(c1[N+](=O)[O-])C(=O)c1ccccc1C2=O | active; inactive |
| C1COCCO1 | inactive; inconclusive |
| CN(C)N | active |
| Cc1nc(N)cc2[nH]c3ccccc3c12 | active |
| O=c1c(O)c(-c2ccc(O)c(O)c2)oc2cc(O)cc(O)c12 | active; inactive |
| c1ccc2c(c1)[nH]c1cnccc12 | active |
| COc1cc(/C=C/C(=O)CC(=O)/C=C/c2ccc(O)c(OC)c2)ccc1O | inactive |
| O=S1(=O)CCCO1 | active; inactive |
| O=[N+]([O-])c1ccc(-c2cscn2)o1 | active; inactive |
| N#Cc1c(Cl)c(Cl)c(Cl)c(C#N)c1Cl | inactive |
| c1ccccc1 | inactive; active |
| CC(CCl)OC(C)CCl (configuration not stated) | active |
| O=NN(CCO)CCO | active; inactive |
| COc1cc(CNC(=O)CCCC/C=C/C(C)C)ccc1O | inactive; active |

| SMILES | outcome |
| --- | --- |
| C=CCc1ccc2c(c1)OCO2 | inactive; active |
| CC(Cl)CCl (configuration not stated) | active; inactive |
| COC(=O)C1=CCCN(N=O)C1 | active |
| O=NN1CCC(O)C1 (configuration not stated) | active |
| C/C=C1/C[C@@H](C)[C@](O)(CO)C(=O)OCC2=CCN3CC[C@@H](OC1=O)[C@@H]23 | active; inactive |
| CC(=O)Oc1ccccc1C(=O)O | inactive |
| COP(=S)(OC)Oc1ccc(SC)c(C)c1 | inactive; active |
| Cc1cc2c(nc1N)[nH]c1ccccc12 | active; inactive |
| C=CN1CCCC1=O | inactive |
| [C-]1=CC=CC1.[C-]1=CC=CC1.[Cl-].[Cl-].[Ti+4] | active; inactive |
| Cc1cc(N=Nc2c(O)ccc3ccccc23)c(S(=O)(=O)O)cc1Cl | active |
| CNc1ccc(N(CCO)CCO)cc1[N+](=O)[O-] | active |
| COc1cccc2c1cc([N+](=O)[O-])c1c(C(=O)O)cc3c(c12)OCO3 | active |
| CCOC(N)=O | active; inactive |
| CCCCCC | inactive |
| COc1cc(-c2ccc(N=C=O)c(OC)c2)ccc1N=C=O | active |
| OCc1ccccc1 | inactive |
| CC(O)CCl (configuration not stated) | active |
| CNC[C@H](O)c1ccc(O)c(O)c1 | inactive; active |
| C[C@H]1C(=O)O[C@@H]2CCN3CC=C(COC(=O)[C@](C)(O)[C@]1(C)O)[C@H]23 | inactive; active |
| CCOC(=O)N(CC)N=O | active; inactive |
| IC(I)I | active |
| CNC(=S)N(C)C | inactive; active |
| C=C1C/C(=C/C)C(=O)O[C@@H]2CCN3CC=C(COC(=O)[C@@]1(O)CO)[C@H]23 | active; inactive |
| CC1(C)COC1=O | active |

| SMILES | outcome |
| --- | --- |
| O.O.O.O.O.O.O=S(=O)([O-])[O-].[Ni+2] | inactive; active |
| O=C(O)CN(CCN(CC(=O)O)CC(=O)O)CC(=O)O | inactive |
| CC(O)CN(CC(C)O)CC(C)O (configuration not stated) | inactive; active |
| O=C1CCCO1 | inactive; active |
| CC#N | inactive |
| Oc1ccc(O)cc1 | inactive |
| C[C@H](CCC(=O)O)[C@H]1CC[C@H]2[C@@H]3CC[C@@H]4C[C@H](O)CC[C@]4(C)[C@H]3CC[C@]12C | inactive |
| CC(=O)OCc1ccccc1 | inactive; active |
| Nc1ccc(O)c([N+](=O)[O-])c1 | active |
| CC(C)Oc1ccc(Nc2ccccc2)cc1 | inactive; active |
| Cc1ccc(N)c(C)c1 | active |
| CC(O)CNCC(C)O (configuration not stated) | inactive |
| Nc1ccc(N)c(Cl)c1 | active; inactive |
| CCCN(CCC)N=O | active |
| CCC[CH2][Sn]([CH2]CCC)([O]C(C)=O)[O]C(C)=O | inactive |
| O=C(O)CN(CC(=O)O)CC(=O)O | inactive; active |
| CC(=O)c1ccc(S(=O)(=O)NC(=O)NC2CCCCC2)cc1 | inactive |
| CCC[N+](=O)[O-] | inactive; active |
| COC(C)(C)C | inactive; active |
| CN(C)C(=O)Cl | active |
| CCOP(=S)(OCC)Oc1cc(C)nc(C(C)C)n1 | inactive; active |
| CC1(C)S[C@@H]2[C@H](NC(=O)COc3ccccc3)C(=O)N2[C@H]1C(=O)O | inactive; active |
| Cc1ccc(S(=O)(=O)Oc2ccc(N=Nc3ccc(-c4ccc(N=Nc5c(O)ccc6cc(S(=O)(=O)O)cc(S(=O)(=O)O)c56)c(C)c4)cc3C)cc2)cc1 | active |
| ClC(Cl)Cl | inactive |
| O=C1O[C@H]([C@H](O)CO)C(O)=C1O | inactive |

| SMILES | outcome |
| --- | --- |
| CN=[N+](C)[O-] | active |
| CN(C)c1ccc(C(=O)c2ccc(N(C)C)cc2)cc1 | active; inactive |
| CC(C)(Oc1ccc(C2CCCc3ccccc32)cc1)C(=O)O (configuration not stated) | inactive |
| Clc1ccc(C(c2ccc(Cl)cc2)C(Cl)(Cl)Cl)cc1 | inactive |
| CCCCC(CC)COP(=O)(OCC(CC)CCCC)OCC(CC)CCCC (configuration not stated) | inactive; active |
| FC(F)OC(Cl)C(F)(F)F (configuration not stated) | inactive |
| CN(C#N)N=O | active; inactive |
| C=C(C)[C@H]1CC=C(C)CC1 | inactive; active |
| COc1ccc([N+](=O)[O-])cc1N | active; inactive |
| C=CCc1ccc(O)c(OC)c1 | inactive |
| O=NN1CCCN(N=O)CC1 | active |
| CCCN(N=O)C(N)=O | active |
| CCOP(=S)(OCC)Oc1nc(Cl)c(Cl)cc1Cl | inactive |
| OCCN(CCO)CCO | inactive; active |
| O=c1ccc2ccccc2o1 | active; inactive |
| COc1cc(N=Nc2ccccc2)ccc1N | active |
| C[C@]12C=CC(=O)C=C1CC[C@@H]1[C@@H]2[C@@H](O)C[C@@]2(C)[C@H]1CC[C@]2(O)C(=O)CO | inactive; active |
| O=[N+]([O-])c1ccc(Nc2ccc(Nc3ccccc3)c(S(=O)(=O)O)c2)c([N+](=O)[O-])c1 | active; inactive |
| O=c1[nH]cc(F)c(=O)[nH]1 | inactive; active |
| O=C1c2cccc(O)c2C(=O)c2c(O)cccc21 | active |
| O=CCCCC=O | active |
| COc1cc(-c2ccc(N=Nc3c(S(=O)(=O)O)cc4cc(S(=O)(=O)O)cc(N)c4c3O)c(OC)c2)ccc1N=Nc1c(S(=O)(=O)O)cc2cc(S(=O)(=O)O)cc(N)c2c1O | active |
